Assays:
Assay type in all cases: cell-based, human
p21 = p21 mRNA levels (qPCR); conditions: UVB-irradiated HDF, SA treatment
Procedure: RNA was extracted from cell pellets using the Total RNA Purification Kit (Norgen, Canada), according to the manufacturer’s protocol. […] The primers and their respective sequences are listed in Supplementary Table 1. qPCR protocol included one step at 95° C for 30 s, 40 cycles at 95° C for 10s, and 60° C for 1min. The results were analyzed with Bio-Rad CFX Manager software. BACT was used as a housekeeping gene to normalize gene expression. page 6: Supplementary Figure 6. Quantification (n=3) of the percentage of cells in each cell cycle phase and poliploydies in (A) non-irradiated cells treated with Shikimic acid at the indicated doses and (B) UVB-irradiated cells treated with Shikimic acid at the indicated doses, following the senescence induction method described in Figure 2A. (C) Relative p21 mRNA levels (n=3) in UVB-irradiated cells treated with Shikimic acid at the indicated doses, following the senescence induction method described in Figure 2A. (D) Second (PC-2) and third (PC-3) principal components in the fingerprint region (1800–950 cm−1) from the samples mentioned in Figure 4G. Student T-test, *p<0.05, **p<0.01, ***p<0.001. www.aging-us.com 6 AGING (1 picture or pasted object on this page, not shown here)

LC3-II = LC3-II protein levels (Western blot); conditions: UVB-irradiated cells, SA -/+ EX-527 1 μM (reversion at SA 10mM)
Procedure: Figure 5 (A) Western-blot of BiP proteins levels in UVB or non UVB irradiated cells treated with SA at the indicated concentrations in presence or absence of EX-527 1 μM. (B) Quantification of n=3 experiments as (A). The levels of BiP are normalized by the loading control (histone H3) and represented related to the conditions in UVB irradiated cells in absence of SA and EX-527. Student T-test, *p<0.05. (C) Percentage of SA-β-Gal in assays performed as in Figure 3C. (D) Levels of spliced and unspliced XBP1 mRNA monitored by qPCR analysis in cells treated in the indicated conditions in presence or absence of SA and/or EX-527. The levels were normalized by internal controls and represented in each case related to the conditions in UVB irradiated cells in absence of SA and EX-527. Student T-test, *p<0.05, **p<0.01, ***p<0.001. (E) LC3-II protein levels in experiments like in (A). The levels of LC3-II are normalized by the loading control (tubulin) and represented related to the conditions in UVB irradiated cells in absence of SA and EX-527. Student T-test, *p<0.05. (F) Proposed Model for the effect of SA on senescence through SIRT1. Other possible unexplored connections between SA and senescence are indicated by blue broken lines.
Protein levels were analyzed as previously described. Cells were directly lysed in 1x Laemmli Buffer (Bio-Rad, USA), incubated at 95° C and centrifuged. […]

[1] = system: HDF cells (misfolded proteins); assay: FTIRM analysis, beta-sheet to alpha-helix ratio; conditions: UVB-irradiated cells, SA 25 mM -/+ EX-527 1 μM
Procedure: Figure 4 (A) SRB and Trypan blue cell viability assays performed in cells treated with or without Shikimic acid (5, 10, 25 and 50 mM) for 24h. (B) Apoptosis detection using the Annexin V-FITC/PI double staining followed by flow cytometry in non-irradiated and non-treated cells, irradiated and non-treated cells and irradiated cells treated with Shikimic acid (10, 25 and 50 mM). (C) Representation and statistical analysis of the percentage of apoptotic cells in each of the conditions analyzed. (D) Cell cycle analysis using PI staining followed by flow cytometry. (E) Relative p16^INK4a mRNA levels monitored by qPCR in the indicated conditions. Student T-test, *p<0.05. (F) Immunofluorescence of γH2AX in non-irradiated and non-treated cells, irradiated and non-treated cells and irradiated cells treated with Shikimic acid (10, 25 and 50 mM). […]
FTIRM measurements were performed at the MIRAS beamline of ALBA Synchrotron using the internal (Globar®) source. […] The structure content of the amide I peak (1710-1598 cm−1) was determined by band deconvolution using Gaussian band fitting profiles (Origin 7.0 software). The position and number of peaks, which were assigned to specific types of secondary structures, were determined using the second derivative of the spectra.

## O=C(O)C1=C[C@@H](O)[C@@H](O)[C@H](O)C1 [Shikimic acid]
p21
  p21 mRNA levels: did not observe any clear effect
LC3-II
  LC3-II protein levels: SA-dependent decrease in the levels of LC3-II
[1]
  β-sheet/α-helix ratio (misfolded proteins): inhibited these levels well below the ratio observed in control cells

From article PMC8148468, “Shikimic acid protects skin cells from UV-induced senescence through activation of the NAD+-dependent deacetylase SIRT1” (Aging (Albany NY), 2021)
